Assay [1] concerns CD4+CD25+CD127− Treg cells. Briefly: FACS analysis of CD4, NFκB and FoxP3 in expanded Tregs stimulated with PMA with or without Sia. The format is cell-based, human. The source says:
PBMCs were labelled with antibodies (Becton Dickinson®, UK) against CD3, CD4, CD25, CD45, CD45RA, CD127 and CD43 antigens according to the manufacturer's instructions to assess relative Treg numbers. When FoxP3 and nuclear factor kappa-light-chain-enhancer of activated B cells (NFκB) antibody labelling was required, cells were pretreated with a lymphocyte membrane permeabilising solution (BD FACS™ Permeabilizing solution 2; Becton Dickinson®, UK). For monocyte analysis, cells were firstly enriched using a pan monocyte isolation kit and benchtop magnetic cell sorting device (autoMACS Pro separator; Miltenyi Biotec®). Enriched monocytes were labelled with antibodies (Becton Dickinson®, UK) against CD14, CD16 and CD169 antigens. Cell populations were analysed using fluorescence-activated cell sorting (FACS) in a flow cytometer with sorting capability (FACSAria™ III; Becton Dickinson, UK) with appropriate flow cytometer software (BD FACSDiva™ software version 8.0.1; Becton Dickinson, UK). Negative controls including unlabelled cells and isotype matched control antibodies were used to determine gating strategies. The positivity of a specific cell surface marker in labelled samples compared to the negative control was analysed as a percentage of the parent population. The median fluorescence intensity (MFI), indicating cell surface density of a specific marker, was also noted for cell populations. Mann Whitney tests were used to assess the statistical significance of differences between sample groups and graphs depict median values with error bars representing the interquartile range.
CD4^+CD25^+CD127^− Treg cells were sorted by FACS into phosphate buffered saline (PBS) containing 20% AB serum (Sigma-Aldrich®, UK), then washed and resuspended in serum-free cell culture medium (TexsMACS™ medium; Miltenyi Biotec®, UK), supplemented with 5% AB serum (Sigma-Aldrich®, UK), 1% Penicillin-Streptomycin (Gibco®, Ireland) and human IL-2 (Miltenyi Biotec®, UK). Trypan blue (Sigma-Aldrich®, UK) was used to ensure cell viability after sorting was >90-95%. A human Treg expansion kit (Miltenyi Biotec, UK) was used to induce Treg proliferation in order to expand the population to sufficient cell numbers for experiments. Following 14 days of expansion, Tregs were stimulated with 10 ng/ml phorbol 12-myristate 13-acetate (PMA) (Sigma-Aldrich®, UK) and 500 ng/ml ionomycin (10) (Invitrogen®) for 24 hours. During the same 24-hour stimulation, Tregs were incubated with or without 10 mM sialic acid (Sia) (Sigma-Aldrich®, UK). […] Cell culture conditioned media was retained and analysed for secreted cytokine levels by enzyme-linked immunosorbent assay (ELISA), described below. […]
(In flow cytometry, cells or beads pass a laser one at a time.)

The subject of assay [2] is CD4+CD25+CD127− Treg cells. Kind of assay: ELISA of secreted cytokines (TNFα, IL-10, IFNγ) in conditioned media of Treg cultures. The format is cell-based, human. As to conditions: PMA relative to controls. The source says: CD4^+CD25^+CD127^− Treg cells were sorted by FACS into phosphate buffered saline (PBS) containing 20% AB serum (Sigma-Aldrich®, UK), then washed and resuspended in serum-free cell culture medium (TexsMACS™ medium; Miltenyi Biotec®, UK), supplemented with 5% AB serum (Sigma-Aldrich®, UK), 1% Penicillin-Streptomycin (Gibco®, Ireland) and human IL-2 (Miltenyi Biotec®, UK). Trypan blue (Sigma-Aldrich®, UK) was used to ensure cell viability after sorting was >90-95%. A human Treg expansion kit (Miltenyi Biotec, UK) was used to induce Treg proliferation in order to expand the population to sufficient cell numbers for experiments. Following 14 days of expansion, Tregs were stimulated with 10 ng/ml phorbol 12-myristate 13-acetate (PMA) (Sigma-Aldrich®, UK) and 500 ng/ml ionomycin (10) (Invitrogen®) for 24 hours. During the same 24-hour stimulation, Tregs were incubated with or without 10 mM sialic acid (Sia) (Sigma-Aldrich®, UK). At baseline, 24 hr and 48 hr time points (Day 0, Day 1 and Day 2), cells were removed from culture and labelled prior to FACS analysis of extracellular markers CD4, CD25, CD127 and CD43, and intracellular markers NFκB and FoxP3. Cell culture conditioned media was retained and analysed for secreted cytokine levels by enzyme-linked immunosorbent assay (ELISA), described below. A preliminary experiment included a Day 2 time-point, however latter experiments were concluded at the Day 1 time-point as this was sufficient to observe Sia treatment effects. […]
Following cell culture experiments, conditioned media were analysed to quantify TNFα, IL-10 and IFN-γ by ELISA using appropriate ELISA reagent kits (DuoSet® ELISA development kits; R&D Systems®, UK) according to the manufacturer's instructions. The optical density (OD) was determined using a spectrophotometer (Epoch™ microplate spectrophotometer; BioTek® Ltd, UK) with appropriate software (Gen5™; BioTek® Ltd, UK). The plate was read at a wavelength of 450 nm and wavelength correction of OD at 540 nm used. […]
On the technique in general: ELISA stands for enzyme-linked immunosorbent assay.

“Also recorded” adds a separate entry of the source.

For the compound `CC(=O)N[C@H]1[C@H]([C@H](O)[C@H](O)CO)OC(O)(C(=O)O)C[C@@H]1O` (stereo partly shown) [Sia, sialic acid], the “effect on NFκB Tregs” value in assay [1] (10 mM Sia added to PMA-stimulated Tregs, after 2 days) is “no significant effect”.

For the compound `CCCCCCCCCCCCCC(=O)O[C@@H]1[C@@H](C)[C@@]2(O)[C@@H](C=C(CO)C[C@]3(O)C(=O)C(C)=C[C@@H]23)[C@@H]2C(C)(C)[C@]12OC(C)=O` [PMA, phorbol 12-myristate 13-acetate], the “CD4 cell-surface expression (percentage of CD4 positivity)” value in assay [1] (10 ng/ml PMA + 500 ng/ml ionomycin, compared to CTL cells without stimulation) was “reduced; also recorded: reduction”. Also, the “percentage of cells with intracellular expression of FoxP3” value in assay [1] (PMA stimulation, both CD43+ and CD43− Tregs, each time point, p<0.01) is “increased”. Moreover, the “percentage of cells with intracellular expression of NFκB” value in assay [1] (PMA stimulation, both CD43+ and CD43− Tregs, each time point, p<0.05) is given as “increased”. Also, the “IFNγ levels secreted into media” value in assay [2] (Day 1, p<0.01) is “significantly higher”. Further, in assay [2] (Day 1 and Day 2, p<0.05), the “levels of IL-10 secreted into media” value was “significantly increased” and the “levels of TNFα secreted into media” value is given as “significantly increased”.

The record behind these values is patent US20240369536A1, “A CELL BASED TEST TO MONITOR DMARD DRUG RESPONSE” (UNIVERSITY OF ULSTER, priority 2021, published 2024).
